Reference: ChEMBL document CHEMBL1144311, “Synthesis of argentatin A derivatives as growth inhibitors of human cancer cell lines in vitro” (Bioorg Med Chem Lett, 2005)

Tests used:
Assay type in all cases: functional, cell-based
K562 = test: Inhibitory concentration towards chronic myelogenous leukemic cell line (K562) was determined; settings: Homo sapiens
HCT-15 = test: Inhibitory concentration towards human colon adenocarcinoma cell line (HCT-15) was determined
U-251 = test: Inhibitory concentration towards human central nervous system glioblastoma cell line (U251) was determined
PC-3 [1] = test: Inhibitory concentration towards human prostatic adenocarcinoma cell line (PC-3) was determined
PC-3 [2] = test: Inhibitory concentration against human prostatic adenocarcinoma cell line (PC-3) was determined

| Compound | IC50 (K562) | IC50 (HCT-15) | IC50 (U-251) | IC50 (PC-3 [1]) | IC50 (PC-3 [2]) |
| --- | --- | --- | --- | --- | --- |
| CC1(C)/C(=N/O)C=C[C@]23C[C@]24CC[C@]2(C)C([C@]5(C)CC[C@H](C(C)(C)O)O5)[C@@H](O)C[C@@]2(C)C4CCC13 (stereo not given in full) | 44.4 µM | 35.8 µM | 26.8 µM | 46.9 µM | – |
| CC1(C)c2oncc2C[C@]23C[C@]24CC[C@]2(C)C([C@]5(C)CC[C@H](C(C)(C)O)O5)[C@@H](O)C[C@@]2(C)C4CCC13 (stereo not given in full) | 11 µM | 10.2 µM | 11.3 µM | 13 µM | – |
| CC(=O)O[C@H]1C[C@@]2(C)C3CCC4C(C)(C)/C(=N\O)CC[C@@]45C[C@@]35CC[C@]2(C)C1[C@]1(C)CC[C@H](C(C)(C)OC(C)=O)O1 (stereo not given in full) | 15.2 µM | 28.9 µM | 21.4 µM | 12.6 µM | – |
| CC(=O)O[C@H]1C[C@@]2(C)C3CCC4C(C)(C)C(=O)CC[C@@]45C[C@@]35CC[C@]2(C)C1[C@]1(C)CC[C@H](C(C)(C)OC(C)=O)O1 (stereo not given in full) | 68.4 µM | 40.7 µM | 30.5 µM | 22.7 µM | – |
| CC(=O)OC1C[C@@]2(C)C3CCC4C(C)(C)C(=O)C=C[C@@]45C[C@@]35CC[C@]2(C)C1[C@]1(C)CC[C@H](C(C)(C)OC(C)=O)O1 (stereo not given in full) | > 100 µM | > 100 µM | 58.4 µM | 13.9 µM | – |
| CC1(C)C(=O)C=C[C@]23C[C@]24CC[C@]2(C)C([C@]5(C)CC[C@H](C(C)(C)O)O5)[C@@H](O)C[C@@]2(C)C4CCC13 (stereo not given in full) | 16.8 µM | 16.7 µM | 18.9 µM | 15.3 µM | – |
| CC1(C)C(=O)CC[C@]23C[C@]24CC[C@]2(C)C([C@]5(C)CC[C@H](C(C)(C)O)O5)[C@@H](O)C[C@@]2(C)C4CCC13 (stereo not given in full) | 38.6 µM | 31.7 µM | 27.3 µM | 20.2 µM | – |
| CC1(C)C(O)=C(C=O)C[C@]23C[C@]24CC[C@]2(C)C([C@]5(C)CC[C@H](C(C)(C)O)O5)C(O)C[C@@]2(C)C4CCC13 (stereo not given in full) | 14.4 µM | 9.82 µM | 5.88 µM | 5.69 µM | – |
| CC1(C)C(=O)[C@H](Br)C[C@]23C[C@]24CC[C@]2(C)C([C@]5(C)CC[C@H](C(C)(C)O)O5)[C@@H](O)C[C@@]2(C)C4CCC13 (stereo not given in full) | 4.34 µM | 3.23 µM | 13.9 µM | – | 11.1 µM |
| CC1(C)C(=O)CC[C@]23C[C@]24CC[C@]2(C)C([C@]5(C)CCC(=O)O5)C(=O)C[C@@]2(C)C4CCC13 (stereo not given in full) | > 100 µM | > 100 µM | > 100 µM | > 100 µM | – |
